Values joined by “and” are separate entries in the source; they are usually repeats but may differ in a detail not shown here. Equal values may be shown once. “Also recorded” adds a separate entry of the source. Each block holds one molecule with its values, some of them ahead of it.
Tests used:
[1] = system: MDA-MB-231 cells; test: Thrombin-induced cell rounding; format: cell-based; conditions: 24 h pretreatment, GGTI-DU40 5 μM, SN-DU40 and FTI 20 μM, thrombin 20 min
Protocol: For the experiments assessing thrombin effects on cell morphology, MDA-MB-231 cells were plated onto glass-bottom microwell dishes at 10-20% confluence and grown for 18-24 h in the presence of serum. Cells were then washed once with PBS and media replaced with serum-free media (DMEM) including indicated compounds and incubated an additional 24 h. Cells were then imaged, treated with thrombin (1 U/mL for 20 min), and imaged again.

[2] = system: Rho association with RhoGDI in MDA-MB-231 cells; test: RhoGDI-Rho interaction assay (GST-RhoGDI pull-down); format: cell-based; conditions: 24 h, GGTI-DU40 5 μM, FTI 20 μM
Protocol: The interaction of GST-RhoGDI with endogenous Rho was assessed by protein interaction experiments. RhoGDI was generated as a glutathione-S-transferase fusion protein using a construct provided by Gary Bokoch (Scripps). The GST-RhoGDI fusion protein was incubated with treated MDA-MB-231 cell lysates (prepared identically to Gβγ partitioning above) for 1 hr at 4° C. in a total volume of 200 μl. Glutathione-sepharose was added and the mixture rotated at 4° C. for 30 min after which the affinity matrix was pelleted and washed three times with 500 μl of incubation buffer (70 mM HEPES, pH 7.5, 2 mM EDTA, 1 mM DTT, 150 mM NaCl, 0.1% Tween, 100 μM GDP, 2 mM MgCl2). Proteins retained on the matrix were solubilized in 2× Laemmli loading buffer and separated by electrophoresis on denaturing, 4-20% polyacrylamide gels. Proteins were transferred to nitrocellulose membranes for immunoblotting with an anti-RhoA antibody (Santa Cruz, sc-179).

[3] = system: Rap1 prenylation in MDA-MB-231 cells; test: Unprenylated Rap1 analysis (immunoblot); format: cell-based; conditions: 24 h
Protocol: To measure levels of unprenylated Rap1 in cells, whole cell lysates of MDA-MB-231 cells (prepared identically to Gβγ partitioning above, 75 ug) were mixed with Laemmli loading buffer and boiled. Samples were then separated by electrophoresis on denaturing 4-20% polyacrylamide gels and proteins transferred to nitrocellulose membranes for immunoblotting with antisera specific for the unprenylated form of Rap1 (Santa Cruz, sc-1482, goat). Sample loading was verified by reprobing blots with antisera for total Rap1 (Santa Cruz, sc-65, rabbit).

[4] = system: GFP-Ras-CVLL in MDCK cells; test: Localization of GFP-Ras-CVLL in MDCK cells; format: cell-based; conditions: for localization of Ras-CVLL: 20 μM, 24 h
Protocol: (§1) MDCK cells stably expressing GFP-H-Ras were a gift from Mark Philips (New York University School of Medicine). Ras-CVLL was cloned into pEGFP (Clontech) and used to transfect MDCK cells. Stable clones were then selected using […] Geneticin and expression confirmed by analysis of GFP expression as visualized by fluorescence microscopy. MDCK cells were always cultured as a monolayer in DMEM with 10% FBS. For drug treatment experiments, cells were plated onto glass-bottom microwell dishes (MatTek Corp, Ashland, Mass.) and experiments initiated approximately 24 h after cells reached confluence. All compounds tested were dissolved in DMSO and added to cells at a final DMSO concentration of 0.02%.
(§2) Assessment of receptor independent cell rounding was accomplished using adenovirus expressing the activated mutant of Gα12, Gα12QL (31). MDA-MB-231 cells were plated onto glass-bottom microwell dishes at 60% confluence and grown for 18-24 h in the presence of serum. Cells were then washed once with PBS and media replaced with serum-free media (DMEM) including any indicated compounds and incubated 6 h before addition of recombinant adenovirus. Following an additional 12 h incubation, cells were imaged using brightfield and GFP fluorescence microscopy. Cell images were acquired using an Eclipse TE300 microscope (Nikon) using either an oil immersion lens at 600× (for fluorescence of MDCK cells) or a plan fluor lens at 200× (for MBA-321 cells) and a SPOT digital camera (Diagnostic Instruments, Sterling Heights, Mich.) employing SPOT RT 3.02 software.

[5] = system: GFP-H-Ras in MDCK cells; test: Localization of GFP-H-Ras in MDCK cells; format: cell-based; conditions: 20 μM, 24 h
Protocol: as §1
as §2, with “Cells were then washed once with PBS and media replaced with serum-free media (DMEM) including any indicated compounds and incubated 6 h before addition of recombinant adenovirus.” left out

[6] = biological target: T1, GGTase-I (Homo sapiens, UniProt P53609); test: GGTase-I enzyme assay (3H-GGPP incorporation into Ras-CVLL); format: biochemical, mammalian
T1 construct: made in house; host or cells: Sf9 cells
Protocol: (§3) FTase and GGTase-I activities were determined by following incorporation of radiolabeled isoprenoid from ^3H-FPP and ^3H-GGPP into Ras proteins as described previously (28). Briefly, purified mammalian FTase or GGTase-I (50 ng, expressed in Sf9 cells) (29, 30) were used to initiate reactions containing 0.5 μM FPP or GGPP, respectively and 1 μM of the appropriate purified His-tagged Ras substrates (H-Ras for FTase; Ras-CVLL for GGTase-I). Where indicated in the appropriate Figure legend, inhibitors were added at the indicated concentrations. Final DMSO concentration was 2% for all samples. Reactions were carried out for 10 min at 30° C. before precipitation and product determination. Kinetic assays in which GGPP concentration was varied employed 5 ng GGTase-I, and reactions were carried out for five min to prevent GGTase-I concentration from exceeding GGPP concentration.
Graphing and curve fitting were performed using Prism (GraphPad, SanDiego Calif.). Substrate-velocity curves were fit to the Michaelis-Menten equation, while double-reciprocal plots were fit using linear regression. The Ki for GGTI-DU40 was calculated using nonlinear regression and shared parameter curve fitting for all inhibitor concentrations, the velocity equation used was v=Vmax[S]/(Km(1+([I]/Ki))+[S]).

[7] = system: myosin light chain (MLC) phosphorylation in porcine primary TM cells; test: Myosin light chain phosphorylation in TM cells; format: cell-based; conditions: 6 hours, 10% serum
Protocol: (§4) Methods: A selective inhibitor of GGTase-I (GGTI-DU40) was tested in this study to investigate its effects on actin cytosketal integrity, cell adhesions, cell-cell junctions, myosin II phosphosphorylation, and membrane localization of Rho, Rap and G-beta/gamma in trabecular meshwork (TM) cells, using immunofluorescence detection and immunobloting analysis. The effects of GGTI-DU40 on aqueous humor outflow were determined using organ cultured, perfused anterior segments of porcine eyes.
Porcine primary TM cells were treated with GGTI compounds for 6 hours in the presence of 10% serum and the cell lysates were analyzed for the changes in myosin light chain (MLC) phosphorylation using phosphospecific-anti-MLC antibody.

[8] = system: MDA-MB-231 cells; test: Receptor independent cell rounding by Gα12QL expression; format: cell-based
Protocol: as §2

[9] = system: organ cultured anterior segments of porcine eyes; test: Aqueous humor outflow facility in organ cultured, perfused anterior segments; conditions: 10 μM or 25 μM, perfused for 24 to 96 hours, n=8, change from baseline facility
Protocol: as §4
GGTI-396586 was perfused in organ cultured anterior segments of enucleated porcine eyes at a constant flow at 37° C. Changes in aqueous humor outflow facility were determined. Values are expressed as percent change in outflow facility from baseline facility.

[10] = system: porcine TM primary cell cultures; test: TM cell morphology, actin cytoskeleton and focal adhesions; format: cell-based; conditions: 5 to 40 μM, 6 hours, 10% serum
Protocol: as §4
The porcine TM primary cell cultures were treated with GGTI compounds in the presence of 10% serum for 6 hours and recorded for the changes in cell morphology (phase contrast microscope), actin cytoskeletal organization (phalloidin staining) and focal adhesions (vinculin staining).

[11] = biological target: T2, Icmt (Homo sapiens, UniProt O60725); test: Icmt assay; format: biochemical; conditions: concentration range tested
T2 construct: made in house; host or cells: Sf9 (membrane preparation)
Protocol: Icmt assays were performed as described previously (27). Briefly, reactions were performed using biotin-S-famsyl-L-cysteine (4 μM) as a substrate and ^3H-AdoMet (5 μM, 7.5 Ci/mmol) as a methyl donor. Reactions were initiated by the addition of Sf9 membranes containing recombinant human Icmt (2 μg totoal protein) in the presence and absence of inhibitors. Reactions were carried out at room temperature for 20 min, and product formation determined.

[12] = system: MDA-MB-231 cells; test: Thrombin-induced calcium mobilization (Fura-2); format: cell-based; conditions: 5 μM, 24 h
Protocol: For the experiments assessing thrombin-induced calcium flux, MDA-MB-231 were plated on glass coverslips and treated similarly to that described for the thrombin rounding experiments. Calcium flux was measured 24 h after withdrawal of serum and addition of inhibitors using the calcium-sensitive dye Fura 2-AM (Molecular Probes Inc)(32). MDA-MB-231 cells were dye loaded for 1 h with 2.5 μM Fura-2 AM in Hanks balanced salt solution (HBSS, supplemented with 10 mM glucose and 0.1% BSA). After dye loading, the coverslips were placed in a temperature controlled recording chamber and superfused with Hanks solution. Cells were excited alternately at 340 and 380 nm and fluorescence emission at 510 nm was measured every four sec during the course of each experiment. After baseline recording for 2 min, thrombin (1 U/mL) was superfused into the bath chamber for 1 min (˜20 mL), followed by washout. Data is presented after baseline subtraction to show thrombin dependent calcium flux. Fluorescence measurements were acquired using a DeltaScan Illumination System (Photon Technology International (PTI), South Brunswick, N.J.) running on FELIX 1.4 software.

[13] = biological target: T3, GGTase-II (Rab geranylgeranyltransferase) (Bos taurus, UniProt Q5E9B3); test: GGTase-II activity assay (bovine brain cytosol, Rab5a substrate); format: biochemical; conditions: concentration range tested
T3 construct: bovine brain cytosol (200 μg protein) as the enzyme source; from tissue; host or cells: bovine brain cytosol
T3 sequence (Q5E9B3 1-331): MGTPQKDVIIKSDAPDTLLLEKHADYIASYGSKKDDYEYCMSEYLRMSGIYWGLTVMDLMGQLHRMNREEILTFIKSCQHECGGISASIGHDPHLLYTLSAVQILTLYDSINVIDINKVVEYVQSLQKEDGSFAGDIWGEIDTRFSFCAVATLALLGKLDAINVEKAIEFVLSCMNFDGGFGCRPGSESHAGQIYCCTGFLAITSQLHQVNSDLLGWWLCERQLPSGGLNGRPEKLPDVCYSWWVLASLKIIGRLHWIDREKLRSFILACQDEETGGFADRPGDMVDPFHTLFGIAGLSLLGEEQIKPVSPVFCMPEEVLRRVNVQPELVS
Protocol: GGTase-II activity was measured used bovine brain cytosol (200 μg protein) as the enzyme source and purified GST-tagged Rab5a as the protein substrate. The pGEX-Rab5a construct was a gift from Adrienne Cox (University of North Carolina). The assay was performed identically to that described above for the CaaX prenyltransferases except for the enzyme source and protein substrate and that the reaction time was increased to for 30 min.

[14] = biological target: T4, FTase (Homo sapiens, UniProt P49356); test: FTase enzyme assay (3H-FPP incorporation into H-Ras); format: biochemical, mammalian
T4 construct: made in house; host or cells: Sf9 cells
Protocol: as §3

[15] = system: Gβγ in MDA-MB-231 cells; test: Gβγ membrane partitioning; format: cell-based; conditions: 24 h
Protocol: MDA-MB-231 cells were grown in 10 cm dishes and treated exactly as in the thrombin cell rounding assay. Following drug treatment in serum free media, cells were harvested and lysed using ice cold hypotonic lysis buffer (70 mM HEPES pH 7.4, 2 mM EDTA, 1 mM DTT, and protease inhibitors). Following sonication, the whole cell lysate (75 μg protein) was centrifuged at 100,000×g for 45 min. Both the supernatant (S100) and pellet (P100) fractions were processed on 4-20% SDS-polyacrylamide gels and proteins transferred to nitrocellulose membranes for immunoblot analysis.

[16] = system: Rho, Rap and G-beta/gamma in trabecular meshwork (TM) cells; test: Membrane localization of Rho, Rap and G-beta/gamma in TM cells; format: cell-based, porcine; conditions: drug-treated TM cells
Protocol: as §4

T2 sequence (O60725 whole entry): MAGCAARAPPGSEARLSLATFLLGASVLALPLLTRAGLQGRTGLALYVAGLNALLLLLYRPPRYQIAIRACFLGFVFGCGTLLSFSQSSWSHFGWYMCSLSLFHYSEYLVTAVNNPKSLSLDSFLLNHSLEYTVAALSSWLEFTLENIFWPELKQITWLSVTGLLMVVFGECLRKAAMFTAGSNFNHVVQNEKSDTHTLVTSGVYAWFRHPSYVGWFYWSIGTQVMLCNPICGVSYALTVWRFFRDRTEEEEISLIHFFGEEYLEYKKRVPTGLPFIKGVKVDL

Structure (SMILES): CC[C@H](C)[C@@H](CO[C@@H](Cc1ccccc1)C(=O)N[C@@H](CCS(C)(=O)=O)C(=O)OC(C)C)NC[C@@H](N)CS [L-744,832, reference compound]
thrombin-stimulated cell rounding [1]: normal rounding
ability of Rho proteins to associate with RhoGDI [2]: no effect
level of unmodified (unprenylated) Rap1 [3]: no effect
localization of Ras-CVLL [4]: no detectable mislocalization
localization of H-Ras [5]: almost complete mislocalization

FTase/GGTase-I selectivity ratio [6]: > 250
mode of inhibition with respect to the protein substrate ([6]; GGPP fixed, Ras-CVLL varied, 2-20 nM inhibitor): competitive inhibitor
mode of inhibition with respect to GGPP ([6]; Ras-CVLL fixed, GGPP varied, 2-20 nM inhibitor): uncompetitive inhibitor
time-dependent inhibition of GGTase-I ([6]; data not shown): no such behavior was observed
Ki ([6]; protein substrate competition data, nonlinear regression, read-out: Ki for GGTase-I inhibition): < 1 nM and 0.78 nM and 0.8 nM
IC50 ([6]; purified GGTase-I): 8.24 nM
activity against Icmt methyltransferase [11]: no detectable activity
activity against GGTase-II [13]: no detectable activity
IC50 [14]: > 2000 nM
Structure (SMILES): CSCCc1c(-c2cccnc2)nn(-c2ccc(Cl)c(Cl)c2)c1OCCCC(=O)N[C@@H](Cc1ccccc1)C(N)=O [GGTI-DU40, N—[(S)-1-Carbamoyl-2-phenylethyl]-4-[2-(3,4-dichlorophenyl)-4-(2-methylsulfanylethyl)-5-pyridin-3-yl-2-H-pyrazol-3-yloxy]butyramide]
thrombin-stimulated cell rounding [1]: dramatically inhibited
myosin light chain phosphorylation [7]: decreased significantly; also recorded: significantly reduced
ability of Rho proteins to associate with RhoGDI [2]: almost complete loss
rounding of cells elicited by expression of Gα12QL [8]: blocked
increase in aqueous outflow facility [9]: 30%
actin stress fibers and focal adhesions [10]: reversible decreases
changes in TM cell morphology [10]: dose dependent
ability of thrombin to elicit calcium mobilization [12]: unaffected
total calcium flux versus control ([12]; integration of time with fluorescence): no statistical difference
level of unmodified (unprenylated) Rap1 [3]: dose dependent increase
localization of Ras-CVLL [4]: complete mislocalization
lowest inhibitor concentration at which Ras-CVLL mislocalization could be detected ([4]; data not shown): 2 µM
localization of H-Ras [5]: without an effect
membrane-associated Gβγ [15]: partial loss
membrane localization of Rho, Rap and G-beta/gamma [16]: impaired

Source: patent US8669253B2, “Methods for treating glaucoma and macular degeneration” (Duke University, priority 2006, dated 2014)
